Measured values: patent US12091411B2, “IRAK degraders and uses thereof” (Kymera Therapeutics, Inc., priority 2022, dated 2024)
Read-outs that look alike come from different tables or passages of the source.

Molecular target: T1, IRAK4 (Homo sapiens, UniProt Q9NWZ3)
T1 construct: Degradation of IRAK4 in OCI-LY10 was quantitatively measured using Meso Scale Discovery technology; endogenous in cells; host or cells: OCI-LY10
T1 sequence (Q9NWZ3 1-460): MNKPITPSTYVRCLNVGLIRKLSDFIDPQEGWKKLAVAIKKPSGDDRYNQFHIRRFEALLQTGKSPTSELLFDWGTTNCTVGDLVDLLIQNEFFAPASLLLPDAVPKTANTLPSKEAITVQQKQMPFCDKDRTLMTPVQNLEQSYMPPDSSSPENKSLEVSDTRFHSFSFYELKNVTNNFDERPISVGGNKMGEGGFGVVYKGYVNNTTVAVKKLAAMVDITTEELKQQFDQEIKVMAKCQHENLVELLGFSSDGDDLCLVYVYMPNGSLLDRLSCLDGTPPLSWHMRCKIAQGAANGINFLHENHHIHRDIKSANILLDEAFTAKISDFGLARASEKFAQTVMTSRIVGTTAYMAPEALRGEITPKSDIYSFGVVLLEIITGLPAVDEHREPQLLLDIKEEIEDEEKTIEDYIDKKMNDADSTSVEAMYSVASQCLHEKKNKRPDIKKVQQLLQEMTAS
Assay: IRAK4 MSD Degradation in OCI-LY10
Assay type: cell-based
Conditions: OCI-LY10 cells, MSD
In short: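 DC50, from a three-parameter logistic fit and reported as letter bins A (<0.01 μM), B, C, D (>0.2 μM or not tested), reflects IRAK4 loss measured by MSD electrochemiluminescence in OCI-LY10 lysates. Treatment: 8 doses, 1:3 steps, top 1 to 10 μM, 4 to 24 h, 37 °C.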

[1] = 4 hrs incubation, read-out: IRAK4 degradation in OCI-LY10 at 4 hrs: DC50
[2] = 24 hrs incubation, read-out: IRAK4 degradation in OCI-LY10 at 24 hrs: DC50

SMILES	DC50 [1]	DC50 [2]
Cn1c(=O)n(C2CCC(=O)NC2=O)c2cccc([C@H]3C[C@@H](OC4CCN(C[C@H]5CC[C@H](n6cc(NC(=O)c7cnn8ccc(N9C[C@H]%10C[C@@H]9CO%10)nc78)c(C(F)F)n6)CC5)CC4)C3)c21 (stereo partly drawn) [I-81]	< 0.01 µM	> 0.2 µM
Cn1c(=O)n(C2CCC(=O)NC2=O)c2cccc([C@H]3C[C@H](OC4CCN(C[C@H]5CC[C@H](n6cc(NC(=O)c7cnn8ccc(N9C[C@H]%10C[C@@H]9CO%10)nc78)c(C(F)F)n6)CC5)CC4)C3)c21 (stereo partly drawn) [I-82]	> 0.2 µM	> 0.2 µM
Cn1c(=O)n(C2CCC(=O)NC2=O)c2cccc(C#CCN3CCN(C[C@H]4CC[C@H](n5cc(NC(=O)c6cnn7ccc(N8CCOCC8)nc67)c(C(F)F)n5)CC4)CC3)c21 (stereo partly drawn) [I-98]	< 0.01 µM	> 0.2 µM
Cn1c(=O)n(C2CCC(=O)NC2=O)c2cccc(C#CCN3CCN(C[C@H]4CC[C@H](n5cc(NC(=O)c6cnn7ccc(N8CCCCC8)nc67)c(C(F)F)n5)CC4)CC3)c21 (stereo partly drawn) [I-100]	0.01 to 0.1 µM	> 0.2 µM
CN(C)c1ccn2ncc(C(=O)Nc3cn([C@H]4CC[C@H](CN5CCN(CC#Cc6cccc7c6n(C)c(=O)n7C6CCC(=O)NC6=O)CC5)CC4)nc3C(F)F)c2n1 (stereo partly drawn) [I-101]	< 0.01 µM	> 0.2 µM
Cc1ccn2ncc(C(=O)Nc3cn([C@H]4CC[C@H](CN5CCN(CC#Cc6cccc7c6n(C)c(=O)n7C6CCC(=O)NC6=O)CC5)CC4)nc3C(F)F)c2n1 (stereo partly drawn) [I-102]	0.01 to 0.1 µM	> 0.2 µM
Cn1c(=O)n(C2CCC(=O)NC2=O)c2cccc(C#CCN3CCN(C[C@H]4CC[C@H](n5cc(NC(=O)c6cnn7ccc(N8CCCC8)nc67)c(C(F)F)n5)CC4)CC3)c21 (stereo partly drawn) [I-103]	< 0.01 µM	> 0.2 µM
CC(C)c1ccn2ncc(C(=O)Nc3cn([C@H]4CC[C@H](CN5CCN(CC#Cc6cccc7c6n(C)c(=O)n7C6CCC(=O)NC6=O)CC5)CC4)nc3C(F)F)c2n1 (stereo partly drawn) [I-104]	0.01 to 0.1 µM	> 0.2 µM
Cn1c(=O)n(C2CCC(=O)NC2=O)c2cccc(C#CCN3CCN(C[C@H]4CC[C@H](n5cc(NC(=O)c6cnn7ccc(C8C[C@H]9C[C@@H]8CO9)nc67)c(C(F)F)n5)CC4)CC3)c21 (stereo partly drawn) [I-105]	> 0.2 µM	> 0.2 µM
Cn1c(=O)n(C2CCC(=O)NC2=O)c2cccc(C#CCN3CCN(C[C@H]4CC[C@H](n5cc(NC(=O)c6cnn7ccc(N8CCC8)nc67)c(C(F)F)n5)CC4)CC3)c21 (stereo partly drawn) [I-106]	< 0.01 µM	> 0.2 µM
Cn1c(=O)n(C2CCC(=O)NC2=O)c2cccc(C#CCN3CCN(CC4CCC(n5cc(NC(=O)c6cnn7ccc(N8CC9CC8CO9)nc67)c(C(F)F)n5)CC4)CC3)c21 (stereo not drawn) [I-108]	> 0.2 µM	> 0.2 µM
Cn1c(=O)n(C2CCC(=O)NC2=O)c2cccc(C#CCN3CCN(C[C@H]4CC[C@H](n5cc(NC(=O)c6cnn7ccc(C8CCC8)nc67)c(C(F)F)n5)CC4)CC3)c21 (stereo partly drawn) [I-109]	0.01 to 0.1 µM	> 0.2 µM
CCc1ccn2ncc(C(=O)Nc3cn([C@H]4CC[C@H](CN5CCN(CC#Cc6cccc7c6n(C)c(=O)n7C6CCC(=O)NC6=O)CC5)CC4)nc3C(F)F)c2n1 (stereo partly drawn) [I-110]	0.01 to 0.1 µM	0.01 to 0.1 µM
Cn1c(=O)n(C2CCC(=O)NC2=O)c2cccc(C#CCN3CCN(C[C@H]4CC[C@H](n5cc(NC(=O)c6cnn7ccc(N8CCOC(C)(C)C8)nc67)c(C(F)F)n5)CC4)CC3)c21 (stereo partly drawn) [I-111]	< 0.01 µM	> 0.2 µM
Cc1ccc(-c2nn([C@H]3CC[C@H](CN4CCN(CC#Cc5cccc6c5n(C)c(=O)n6C5CCC(=O)NC5=O)CC4)CC3)cc2NC(=O)c2cnn3cccnc23)nc1 (stereo partly drawn) [I-113]	> 0.2 µM	< 0.01 µM
Cc1ccc(-c2nn([C@H]3CC[C@H](CN4CCN(CC#Cc5cccc6c5n(C)c(=O)n6C5CCC(=O)NC5=O)CC4)CC3)cc2NC(=O)c2cnn3cccnc23)c(F)c1 (stereo partly drawn) [I-116]	> 0.2 µM	0.01 to 0.1 µM
Cc1ccc(-c2nn([C@H]3CC[C@H](CN4CCN(CC#Cc5cccc6c5n(C)c(=O)n6C5CCC(=O)NC5=O)CC4)CC3)cc2NC(=O)c2cnn3cccnc23)cc1 (stereo partly drawn) [I-118]	> 0.2 µM	0.01 to 0.1 µM
C[C@@H]1CN(CCCc2cccc3c2n(C)c(=O)n3C2CCC(=O)NC2=O)CCN1C[C@H]1CC[C@H](n2cc(NC(=O)c3cnn4ccc(N5C[C@H]6C[C@@H]5CO6)nc34)c(C(F)F)n2)CC1 (stereo partly drawn) [I-119]	> 0.2 µM	> 0.2 µM
C[C@H]1CN(CCCc2cccc3c2n(C)c(=O)n3C2CCC(=O)NC2=O)CCN1C[C@H]1CC[C@H](n2cc(NC(=O)c3cnn4ccc(N5C[C@H]6C[C@@H]5CO6)nc34)c(C(F)F)n2)CC1 (stereo partly drawn) [I-120]	> 0.2 µM	> 0.2 µM
COc1nn([C@H]2CC[C@H](CN3CCN(CC#Cc4cccc5c4n(C)c(=O)n5C4CCC(=O)NC4=O)CC3)CC2)cc1NC(=O)c1cnn2ccc(N3C[C@H]4C[C@@H]3CO4)nc12 (stereo partly drawn) [I-121]	0.1 to 0.2 µM	> 0.2 µM
Cc1ccc(-c2nn([C@H]3CC[C@H](CN4CCN(CC#Cc5cccc6c5n(C)c(=O)n6C5CCC(=O)NC5=O)CC4)CC3)cc2NC(=O)c2cnn3cccnc23)nc1 (stereo partly drawn) [I-122]	> 0.2 µM	0.01 to 0.1 µM
O=C1CCN(c2cccc(C#CCN3CCN(C[C@H]4CC[C@H](n5cc(NC(=O)c6cnn7ccc(N8C[C@H]9C[C@@H]8CO9)nc67)c(C(F)F)n5)CC4)CC3)c2)C(=O)N1 [I-123]	> 0.2 µM	> 0.2 µM
O=C1CCN(c2ccc(C#CCN3CCN(C[C@H]4CC[C@@H](n5cc(NC(=O)c6cnn7ccc(N8C[C@@H]9C[C@H]8CO9)nc67)c(C(F)F)n5)CC4)CC3)cc2)C(=O)N1 [I-124]	> 0.2 µM	> 0.2 µM

Next, values leading:

DC50 [1]	DC50 [2]	SMILES
> 0.2 µM	> 0.2 µM	COc1cc2nn([C@H]3CC[C@H](CN4CCC5(CC4)CCN(c4cccc6c4n(C)c(=O)n6C4CCC(=O)NC4=O)CC5)CC3)cc2cc1NC(=O)c1cncc(F)c1 (stereo partly drawn) [I-83]
> 0.2 µM	> 0.2 µM	COc1cc2nn([C@H]3CC[C@H](CN4CCC5(CC4)CCN(c4c(C)ccc6c4n(C)c(=O)n6C4CCC(=O)NC4=O)CC5)CC3)cc2cc1NC(=O)c1cncc(C#N)c1 (stereo partly drawn) [I-84]
> 0.2 µM	> 0.2 µM	COc1cc2nn([C@H]3CC[C@H](CN4CCC5(CC4)CCN(c4cccc(N6CCC(=O)NC6=O)c4)CC5)CC3)cc2cc1NC(=O)c1cncc(C#N)c1 [I-85]
> 0.2 µM	> 0.2 µM	COc1cncc(C(=O)Nc2cc3cn([C@H]4CC[C@H](CN5CCC6(CC5)CCN(c5cccc7c5n(C)c(=O)n7C5CCC(=O)NC5=O)CC6)CC4)nc3cc2OC)c1 (stereo partly drawn) [I-86]
< 0.01 µM	< 0.01 µM	COc1cc2nn([C@H]3CC[C@H](CN4CCC5(CC4)CCN(c4c(OC)ccc6c4n(C)c(=O)n6C4CCC(=O)NC4=O)CC5)CC3)cc2cc1NC(=O)c1cncc(C#N)c1 (stereo partly drawn) [I-87]
0.01 to 0.1 µM	> 0.2 µM	COc1cc2nn([C@H]3CC[C@H](CN4CCC5(CC4)CCN(c4ccc(C6CCC(=O)NC6=O)cc4)CC5)CC3)cc2cc1NC(=O)c1cncc(C#N)c1 (stereo partly drawn) [I-88]
> 0.2 µM	> 0.2 µM	COc1cc2nn([C@H]3CC[C@H](CN4CCC5(CC4)CCN(c4cccc6c4n(C)c(=O)n6C4CCC(=O)NC4=O)CC5)CC3)cc2cc1NC(=O)c1cncc(C)c1 (stereo partly drawn) [I-89]
> 0.2 µM	> 0.2 µM	COc1cc2nn([C@H]3CC[C@H](CN4CCC5(CC4)CCN(c4cccc6c(N7CCC(=O)NC7=O)cncc46)CC5)CC3)cc2cc1NC(=O)c1cncc(C#N)c1 [I-90]
> 0.2 µM	0.1 to 0.2 µM	COc1cc2nn([C@H]3CC[C@H](CN4CCC5(CC4)CCN(c4cccc(C6CCC(=O)NC6=O)c4)CC5)CC3)cc2cc1NC(=O)c1cncc(C#N)c1 (stereo partly drawn) [I-91]
> 0.2 µM	> 0.2 µM	COc1cc2nn([C@H]3CC[C@H](CN4CCC5(CC4)CCN(c4cccc6c4n(C)c(=O)n6C4CCC(=O)NC4=O)CC5)CC3)cc2cc1NC(=O)c1cncc(C(F)(F)F)c1 (stereo partly drawn) [I-92]
0.01 to 0.1 µM	0.01 to 0.1 µM	COc1cc2nn([C@H]3CC[C@H](CN4CCC5(CC4)CCN(c4cccc6c(N7CCC(=O)NC7=O)cccc46)CC5)CC3)cc2cc1NC(=O)c1cncc(C#N)c1 [I-93]
> 0.2 µM	> 0.2 µM	COc1cc2nc([C@H]3CC[C@H](CN4CCC5(CC4)CCN(c4cccc6c4n(C)c(=O)n6C4CCC(=O)NC4=O)CC5)CC3)sc2cc1NC(=O)c1cncc(C#N)c1 (stereo partly drawn) [I-94]
> 0.2 µM	> 0.2 µM	COc1cc2nn([C@H]3CC[C@H](CN4CCC5(CC4)CCN(c4c(F)ccc6c4n(C)c(=O)n6C4CCC(=O)NC4=O)CC5)CC3)cc2cc1NC(=O)c1cncc(C#N)c1 (stereo partly drawn) [I-95]
> 0.2 µM	> 0.2 µM	COc1cc2nn([C@H]3CC[C@H](CN4CCC5(CC4)CCN(c4ccc(N6CCC(=O)NC6=O)cc4)CC5)CC3)cc2cc1NC(=O)c1cncc(C#N)c1 [I-96]
< 0.01 µM	> 0.2 µM	Cn1c(=O)n(C2CCC(=O)NC2=O)c2cccc(N3CCC4(CCN(C[C@H]5CC[C@H](c6nc7cc(C(C)(C)O)c(NC(=O)c8cncc(C#N)c8)cc7s6)CC5)CC4)CC3)c21 (stereo partly drawn) [I-97]
0.01 to 0.1 µM	> 0.2 µM	COc1ccn2ncc(C(=O)Nc3cn([C@H]4CC[C@H](CN5CCN(CC#Cc6cccc7c6n(C)c(=O)n7C6CCC(=O)NC6=O)CC5)CC4)nc3C(F)F)c2n1 (stereo partly drawn) [I-99]
